Where a SMILES comes first, the peptide text is derived from it. [ ]: non-standard residue; d: D form. Thr(SO3H) = C[C@@H](OS(=O)(=O)O)[C@H](N)C(=O)O; sY = N[C@@H](Cc1ccc(OS(=O)(=O)O)cc1)C(=O)O; NMeF = CN[C@@H](Cc1ccccc1)C(=O)O; Nle = CCCC[C@H](N)C(=O)O
Columns and labels:
[1] = molecular target: T1, Bovine Striatum (Bos taurus, UniProt P79266); test: In vitro receptor binding assay, inhibition of ³H-CCK-8-(SO₃H) binding to bovine striatum homogenate; conditions: ³H-CCK-8-(SO₃H) 0.15 nM, 30 min at 25° C; read-out: Bovine Striatum (IC₅₀ value)
T1 construct: tissue homogenate (striatum 0.26 mg protein in 2 ml final volume); from tissue; host or cells: bovine striatum homogenate (membrane pellet)
T1 sequence (P79266 1-454): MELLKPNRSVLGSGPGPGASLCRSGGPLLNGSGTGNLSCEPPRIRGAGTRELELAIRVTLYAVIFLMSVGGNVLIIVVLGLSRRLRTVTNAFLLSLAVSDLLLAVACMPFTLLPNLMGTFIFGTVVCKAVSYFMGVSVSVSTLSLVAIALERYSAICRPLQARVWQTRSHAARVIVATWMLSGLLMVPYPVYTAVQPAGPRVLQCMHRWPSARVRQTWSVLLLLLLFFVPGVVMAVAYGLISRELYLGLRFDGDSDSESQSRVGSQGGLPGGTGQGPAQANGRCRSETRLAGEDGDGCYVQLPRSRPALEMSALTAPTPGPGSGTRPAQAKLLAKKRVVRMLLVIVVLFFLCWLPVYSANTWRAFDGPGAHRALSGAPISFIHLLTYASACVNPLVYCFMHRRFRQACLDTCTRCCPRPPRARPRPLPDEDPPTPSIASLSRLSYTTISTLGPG
Procedure: (§1) The tissue was homogenized 2 x for approx. 15 sec. at 0°C using a Polytron homogenizer at a setting of 6. The tissue was isolated by centrifugation at 48,000 x g for 10 min. at 0°C. […] Samples were incubated for 30 min. at 25° C and the incubation terminated by pouring the mixture onto a pre-wet Whatman GF/B filter on a Sandbeck Vacuum Filtration Manifold. The incubation tubes were washed with 2 x 3 ml of ice-cold HEPES Buffer #2 and the wash filtered through the GF/B filter. The filter was air dried for 10 min. and then placed in a scintillation vial with 12 ml of Beckman HP/b Ready-Solv scintillation cocktail. The vials were shaken for 2 hours and then counted using a Beckman Model 7800 liquid scintillation spectrometer.

[2] = molecular target: T2, Rat Pancreas (Rattus norvegicus, UniProt P30551); test: In vitro receptor binding assay, inhibition of ³H-CCK-8-(SO₃H) binding to rat pancreas homogenate; conditions: ³H-CCK-8-(SO₃H) 0.15 nM, 30 min at 25° C; read-out: Rat Pancreas (IC₅₀ value)
T2 construct: pancreas 0.165 mg protein in 1 ml final volume; from tissue; host or cells: rat pancreas homogenate (membrane pellet)
T2 sequence (P30551 1-444): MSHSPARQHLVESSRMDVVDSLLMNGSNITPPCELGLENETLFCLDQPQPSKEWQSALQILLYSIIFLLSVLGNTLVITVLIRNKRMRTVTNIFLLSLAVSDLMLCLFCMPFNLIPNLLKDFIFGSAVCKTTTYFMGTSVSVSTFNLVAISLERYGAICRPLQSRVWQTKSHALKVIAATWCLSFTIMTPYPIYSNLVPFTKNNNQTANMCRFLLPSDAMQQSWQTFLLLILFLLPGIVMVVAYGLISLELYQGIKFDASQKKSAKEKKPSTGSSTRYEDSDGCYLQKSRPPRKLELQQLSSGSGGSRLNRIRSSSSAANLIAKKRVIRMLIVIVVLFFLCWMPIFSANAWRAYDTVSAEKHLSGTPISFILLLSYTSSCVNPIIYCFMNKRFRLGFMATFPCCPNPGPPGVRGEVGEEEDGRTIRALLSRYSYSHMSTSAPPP
Procedure: as §1

With `CSCC[C@H](NC(=O)[C@H](Cc1ccc(OS(=O)(=O)O)cc1)NC(=O)[C@@H](N)CC(=O)O)C(=O)NCC(=O)N[C@@H](Cc1c[nH]c2ccccc12)C(=O)N[C@@H](CCSC)C(=O)N[C@@H](CC(=O)O)C(=O)N[C@@H](Cc1ccccc1)C(N)=O` [CCK-8, reference compound] the IC50 [1] was 1 to 3.2 nM and the IC50 [2] was 1 to 4.6 nM.
Work on `CCCC[C@H](NC(=O)[C@H](Cc1ccc(OS(=O)(=O)O)cc1)NC(C)=O)C(=O)NCC(=O)N[C@@H](Cc1c[nH]c2ccccc12)C(=O)N[C@@H](CCCC)C(=O)N[C@H](C(=O)N(C)[C@@H](Cc1ccccc1)C(N)=O)[C@@H](C)OS(=O)(=O)O` [Example 1, Ac-Tyr(SO₃H)-Nle-Gly-Trp-Nle-Thr(SO₃H)-N-methyl-Phe-NH₂] (Ac-[sY][Nle]GW[Nle][Thr(SO3H)][NMeF]-NH2) yielded an IC50 [1] of 245 nM and an IC50 [2] of 0.14 nM.
`CSCC[C@H](NC(=O)[C@H](Cc1c[nH]c2ccccc12)NC(=O)CNC(=O)[C@H](Cc1ccc(OS(=O)(=O)O)cc1)NC(C)=O)C(=O)N[C@H](C(=O)N(C)[C@@H](Cc1ccccc1)C(N)=O)[C@@H](C)OS(=O)(=O)O` [Example 2, Ac-Tyr(SO₃H)-Gly-Trp-Met-Thr(SO₃H)-N-methyl-Phe-NH₂] (Ac-[sY]GWM[Thr(SO3H)][NMeF]-NH2) gave an IC50 [1] of 1600 nM and an IC50 [2] of 70 nM.
